In the assay the test system is Human platelet aggregation caused by ADP. Kind of assay: Inhibition of ADP-induced platelet aggregation (Mimic-human PRP). Format: cell-based. The note with it: 20 μM ADP, human platelet concentrate diluted with PPP, absorption at 595 nm. Put shortly: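 Ki came from non-linear sigmoidal fits of inhibition, measured as the 3-min rise in absorbance at 595 nm after 20 μM ADP, relative to 0/20 μM ADP controls. Platelets (3–4×10^8/mL in PPP-diluted human PRP) were exposed to 0.01–30 μM compound for 20 min at room temperature beforehand.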

What is called Ki is a measure of affinity in units of concentration, obtained from inhibition or displacement. A higher Ki goes with a looser hold on the target.

Molecules are shown by their SMILES.

As to `CCCC(=O)N1CCC[C@@H]1COc1nc(N2CCn3c(nnc3C(F)(F)F)C2)c2cc(CCC)sc2n1` [Example 8-29, 1-{(R)-2-[6-Propyl-4-(3-trifluoromethyl-5,6-dihydro-8H-[1,2,4]triazolo[4,3-a]pyrazin-7-yl)-thieno[2,3-d]pyrimidin-2-yloxymethyl]-pyrrolidin-1-yl}-butan-1-one], the inhibitory constant (Ki) is 170 nM.
As for `CCCc1cc2c(N3CCn4c(nnc4C(F)(F)F)C3)nc(OC[C@H]3CCCN3C(=O)C(C)C)nc2s1` [Example 8-30, 2-Methyl-1-{(R)-2-[6-propyl-4-(3-trifluoromethyl-5,6-dihydro-8H-[1,2,4]triazolo[4,3-a]pyrazin-7-yl)-thieno[2,3-d]pyrimidin-2-yloxymethyl]-pyrrolidin-1-yl}-propan-1-one], the Ki is 140 nM.
The result for `CCCc1cc2c(N3CCn4c(nnc4C(F)(F)F)C3)nc(OC[C@@H]3CCCN3C(C)=O)nc2s1` [Example 8-31, 1-{(S)-2-[6-Propyl-4-(3-trifluoromethyl-5,6-dihydro-8H-[1,2,4]triazolo[4,3-a]pyrazin-7-yl)-thieno[2,3-d]pyrimidin-2-yloxymethyl]-pyrrolidin-1-yl}-ethanone] reads 19 nM; that for `CCCC(=O)N1CCC[C@H]1COc1nc(N2CCn3c(nnc3C(F)(F)F)C2)c2cc(CCC)sc2n1` [Example 8-32, 1-{(S)-2-[6-Propyl-4-(3-trifluoromethyl-5,6-dihydro-8H-[1,2,4]triazolo[4,3-a]pyrazin-7-yl)-thieno[2,3-d]pyrimidin-2-yloxymethyl]-pyrrolidin-1-yl}-butan-1-one], 62 nM; that for `CCCc1cc2c(N3CCn4c(nnc4C(F)(F)F)C3)nc(OC[C@@H]3CCCN3C(=O)C(C)C)nc2s1` [Example 8-33, 2-Methyl-1-{(S)-2-[6-propyl-4-(3-trifluoromethyl-5,6-dihydro-8H-[1,2,4]triazolo[4,3-a]pyrazin-7-yl)-thieno[2,3-d]pyrimidin-2-yloxymethyl]-pyrrolidin-1-yl}-propan-1-one], 43 nM.
`CCCc1cc2c(N3CCn4c(nnc4C(F)(F)F)C3)nc(OC[C@@H]3CCN(C(C)=O)C3)nc2s1` [Example 8-34, 1-{(R)-3-[6-Propyl-4-(3-trifluoromethyl-5,6-dihydro-8H-[1,2,4]triazolo[4,3-a]pyrazin-7-yl)-thieno[2,3-d]pyrimidin-2-yloxymethyl]-pyrrolidin-1-yl}-ethanone]: the Ki is 45 nM.
In the case of `CCCC(=O)N1CC[C@@H](COc2nc(N3CCn4c(nnc4C(F)(F)F)C3)c3cc(CCC)sc3n2)C1` [Example 8-35, 1-{(R)-3-[6-Propyl-4-(3-trifluoromethyl-5,6-dihydro-8H-[1,2,4]triazolo[4,3-a]pyrazin-7-yl)-thieno[2,3-d]pyrimidin-2-yloxymethyl]-pyrrolidin-1-yl}-butan-1-one] it was 49 nM.
In the case of `CCCc1cc2c(N3CCn4c(nnc4C(F)(F)F)C3)nc(OC[C@@H]3CCN(C(=O)C(C)C)C3)nc2s1` [Example 8-36, 2-Methyl-1-{(R)-3-[6-propyl-4-(3-trifluoromethyl-5,6-dihydro-8H-[1,2,4]triazolo[4,3-a]pyrazin-7-yl)-thieno[2,3-d]pyrimidin-2-yloxymethyl]-pyrrolidin-1-yl}-propan-1-one] it was 45 nM.
In turn, `CCCc1cc2c(N3CCn4c(nnc4C(F)(F)F)C3)nc(OC[C@H]3CCN(C(C)=O)C3)nc2s1` [Example 8-37, 1-{(S)-3-[6-Propyl-4-(3-trifluoromethyl-5,6-dihydro-8H-[1,2,4]triazolo[4,3-a]pyrazin-7-yl)-thieno[2,3-d]pyrimidin-2-yloxymethyl]-pyrrolidin-1-yl}-ethanone] yielded a Ki of 43 nM.
`CCCC(=O)N1CC[C@H](COc2nc(N3CCn4c(nnc4C(F)(F)F)C3)c3cc(CCC)sc3n2)C1` [Example 8-38, 1-{(S)-3-[6-Propyl-4-(3-trifluoromethyl-5,6-dihydro-8H-[1,2,4]triazolo[4,3-a]pyrazin-7-yl)-thieno[2,3-d]pyrimidin-2-yloxymethyl]-pyrrolidin-1-yl}-butan-1-one] showed a Ki of 110 nM.
For `CCCc1cc2c(N3CCn4c(nnc4C(F)(F)F)C3)nc(OC[C@H]3CCN(C(=O)C(C)C)C3)nc2s1` [Example 8-39, 2-Methyl-1-{(S)-3-[6-propyl-4-(3-trifluoromethyl-5,6-dihydro-8H-[1,2,4]triazolo[4,3-a]pyrazin-7-yl)-thieno[2,3-d]pyrimidin-2-yloxymethyl]-pyrrolidin-1-yl}-propan-1-one], the affinity, expressed as Ki, was 76 nM.
Compound `CCCc1cc2c(N3CCn4c(nnc4C(F)(F)F)C3)nc(N3CC(O)C(NC(=O)OCC)C3)nc2s1` (stereo not drawn) [Example 9-1, {4-Hydroxy-1-[6-propyl-4-(3-trifluoromethyl-5,6-dihydro-8H-[1,2,4]triazolo[4,3-a]pyrazin-7-yl)-thieno[2,3-d]pyrimidin-2-yl]-pyrrolidin-3-yl}-carbamic acid ethyl ester] gave a Ki of 18 nM.
On to `CCCc1cc2c(N3CCn4c(nnc4C(F)(F)F)C3)nc(N3CC(O)C(NC(=O)OC)C3)nc2s1` (stereo not drawn) [Example 9-2, {4-Hydroxy-1-[6-propyl-4-(3-trifluoromethyl-5,6-dihydro-8H-[1,2,4]triazolo[4,3-a]pyrazin-7-yl)-thieno[2,3-d]pyrimidin-2-yl]-pyrrolidin-3-yl}-carbamic acid methyl ester], for which the affinity corresponds to a Ki of 8 nM.
Consider `CCCc1cc2c(N3CCn4c(nnc4C(F)(F)F)C3)nc(N3CC[C@H](NC(=O)Oc4ccc(F)cc4)C3)nc2s1` [Example 9-4, {(S)-1-[6-Propyl-4-(3-trifluoromethyl-5,6-dihydro-8H-[1,2,4]triazolo[4,3-a]pyrazin-7-yl)-thieno[2,3-d]pyrimidin-2-yl]-pyrrolidin-3-yl}-carbamic acid 4-fluoro-phenyl ester], for which affinity was put at a Ki of 280 nM.
As to `CCCc1cc2c(N3CCn4c(nnc4C(F)(F)F)C3)nc(N3CC[C@H](NC(=O)C4CCCC4)C3)nc2s1` [Example 9-5, Cyclopentanecarboxylic Acid {(S)-1-[6-propyl-4-(3-trifluoromethyl-5,6-dihydro-8H-[1,2,4]triazolo[4,3-a]pyrazin-7-yl)-thieno[2,3-d]pyrimidin-2-yl]-pyrrolidin-3-yl}-amide], affinity was put at a Ki of 130 nM.
Compound `CCCc1cc2c(N3CCn4c(nnc4C(F)(F)F)C3)nc(N3CC[C@H](NC(=O)C4CCCCC4)C3)nc2s1` [Example 9-9, Cyclohexanecarboxylic Acid {(S)-1-[6-propyl-4-(3-trifluoromethyl-5,6-dihydro-8H-[1,2,4]triazolo[4,3-a]pyrazin-7-yl)-thieno[2,3-d]pyrimidin-2-yl]-pyrrolidin-3-yl}-amide] had a Ki of 300 nM.
In the case of `CCCc1cc2c(N3CCn4c(nnc4C(F)(F)F)C3)nc(N3CC[C@H](NC(=O)c4ccc(Cl)s4)C3)nc2s1` [Example 9-11, 5-Chloro-thiophene-2-carboxylic Acid {(S)-1-[6-propyl-4-(3-trifluoromethyl-5,6-dihydro-8H-[1,2,4]triazolo[4,3-a]pyrazin-7-yl)-thieno[2,3-d]pyrimidin-2-yl]-pyrrolidin-3-yl}-amide] it was 48 nM; in that of `CCCc1cc2c(N3CCn4c(nnc4C(F)(F)F)C3)nc(N3CC[C@H](NC(=O)c4cc(F)c(F)c(F)c4)C3)nc2s1` [Example 9-13, 3,4,5-Trifluoro-N-{(S)-1-[6-propyl-4-(3-trifluoromethyl-5,6-dihydro-8H-[1,2,4]triazolo[4,3-a]pyrazin-7-yl)-thieno[2,3-d]pyrimidin-2-yl]-pyrrolidin-3-yl}-benzamide], 300 nM.
